Experimental data as given in article PMC7531004, “Discovery of gramicidin A analogues with altered activities by multidimensional screening of a one-bead-one-compound library” (Nature Communications, 2020).
Where a SMILES comes first, the peptide text is derived from it. [ ]: non-standard residue; d: D form. The star is where a group is joined. NHCH2CH2OH = OCCN*; For = O=C*

Columns and labels:
[1] = test system: Streptococcus pyogenes SSI-9; test: Antibacterial activity assay of bead-derived peptides (three concentrations); type: cell-based; parameters: key: +++: inhibition by the 640-fold diluted peptide solution; ++: inhibition by the 160-fold diluted solution; +: inhibition by the 40-fold diluted solution; -: no inhibition; conditions: S. pyogenes, bead-derived peptide solution, three concentrations
How it was run: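 Growth inhibition scored visually as precipitated bacteria after 37 °C, 18 h incubation. Streptococcus pyogenes SSI-9 inoculum of 2 × 10^5 CFU in Ca2+/Mg2+-adjusted Mueller Hinton broth plus 5% laked horse blood; peptides tested at three levels: stock, 4-fold and 16-fold DMSO dilutions.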

[2] = H+/Na+ transport assay of bead-derived peptides (one-point); type: biochemical; parameters: key: relative activity; mean of two control wells = 1.00; conditions: bead-derived peptide solution, EYPC/EYPG LUVs;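 note: relative to parent gramicidin A activity set to 1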
How it was run: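 H+/Na+ transport is monitored through pyranine fluorescence in freshly extruded LUVs after a 30-min room-temperature vortex with each library peptide at a single concentration. Signals are normalized to detergent (Triton X-100) and untreated controls.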

[3] = cell viability/%
How it was run: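 Peptide stocks diluted 250× in growth medium; P388 cells 1 × 10^4 cells/mL final; 37 °C, 5% CO2, 92 h. WST-1 + 1-methoxy PMS, 4 h, A415. Output: % viability.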

| SMILES | antibacterial activity [1] | H+/Na+ transport activity normalized against the value of 1 (1.00) [2] | viability [3] [%] |
| --- | --- | --- | --- |
| CC(C)C[C@@H](NC(=O)[C@H](Cc1c[nH]c2ccccc12)NC(=O)[C@H](NC(=O)[C@H](Cc1c[nH]c2ccccc12)NC(=O)[C@H](NC(=O)[C@@H](NC(=O)[C@H](NC(=O)[C@H](C)NC(=O)[C@H](NC(=O)[C@H](C)NC(=O)CNC(=O)[C@@H](NC=O)C(C)C)[C@H](C)O)C(C)C)C(C)C)C(C)C)[C@H](C)O)C(=O)N[C@@H](Cc1c[nH]c2ccccc12)C(=O)N[C@@H](C(=O)N[C@@H](Cc1c[nH]c2ccccc12)C(=O)NCCO)C(C)C [compound 12629] (For-VGA[dT]A[dV]V[dV]W[dT]W[dL]W[dV]W-NHCH2CH2OH) | - | 1.01 | 100 |
| CC(C)C[C@@H](NC(=O)[C@H](C)NC(=O)[C@H](NC(=O)[C@H](C)NC(=O)CNC(=O)[C@@H](NC=O)C(C)C)C(C)C)C(=O)N[C@H](C(=O)N[C@@H](C(=O)N[C@@H](Cc1c[nH]c2ccccc12)C(=O)N[C@@H](C(=O)N[C@@H](Cc1c[nH]c2ccccc12)C(=O)N[C@@H](C(=O)N[C@@H](Cc1c[nH]c2ccccc12)C(=O)N[C@H](CC(C)C)C(=O)N[C@@H](Cc1c[nH]c2ccccc12)C(=O)NCCO)C(C)C)[C@H](C)O)C(C)C)C(C)C [compound 12865] (For-VGA[dV]A[dL]V[dV]W[dT]W[dV]W[dL]W-NHCH2CH2OH) | - | 1.10 | 91.7 |
| CNC(=O)C[C@@H](NC(=O)[C@H](C)NC(=O)[C@H](NC(=O)[C@H](C)NC(=O)CNC(=O)[C@@H](NC=O)C(C)C)C(C)C)C(=O)N[C@H](C(=O)N[C@@H](C(=O)N[C@@H](Cc1c[nH]c2ccccc12)C(=O)N[C@H](CC(C)C)C(=O)N[C@@H](Cc1c[nH]c2ccccc12)C(=O)N[C@@H](C(=O)N[C@@H](Cc1c[nH]c2ccccc12)C(=O)N[C@H](CC(C)C)C(=O)N[C@@H](Cc1c[nH]c2ccccc12)C(=O)NCCO)C(C)C)C(C)C)C(C)C [compound 12938] (For-VGA[dV]A[dD](NHMe)V[dV]W[dL]W[dV]W[dL]W-NHCH2CH2OH) | - | 1.07 | 100 |
| CC(C)C[C@@H](NC(=O)[C@H](C)NC(=O)CNC(=O)[C@@H](NC=O)C(C)C)C(=O)N[C@@H](C)C(=O)N[C@@H](C(=O)N[C@H](C(=O)N[C@@H](C(=O)N[C@@H](Cc1c[nH]c2ccccc12)C(=O)N[C@H](CC(C)C)C(=O)N[C@@H](Cc1c[nH]c2ccccc12)C(=O)N[C@H](CC(C)C)C(=O)N[C@@H](Cc1c[nH]c2ccccc12)C(=O)N[C@@H](C(=O)N[C@@H](Cc1c[nH]c2ccccc12)C(=O)NCCO)C(C)C)C(C)C)C(C)C)[C@H](C)O [compound 13002] (For-VGA[dL]A[dT]V[dV]W[dL]W[dL]W[dV]W-NHCH2CH2OH) | - | 1.33 | 98.3 |
| CNC(=O)C[C@@H](NC(=O)[C@H](Cc1c[nH]c2ccccc12)NC(=O)[C@@H](CC(C)C)NC(=O)[C@H](Cc1c[nH]c2ccccc12)NC(=O)[C@H](NC(=O)[C@H](Cc1c[nH]c2ccccc12)NC(=O)[C@@H](CC(C)C)NC(=O)[C@@H](NC(=O)[C@@H](CC(C)C)NC(=O)[C@H](C)NC(=O)[C@@H](CC(C)C)NC(=O)[C@H](C)NC(=O)CNC(=O)[C@@H](NC=O)C(C)C)C(C)C)[C@H](C)O)C(=O)N[C@@H](Cc1c[nH]c2ccccc12)C(=O)NCCO [compound 13033] (For-VGA[dL]A[dL]V[dL]W[dT]W[dL]W[dD](NHMe)W-NHCH2CH2OH) | - | 1.01 | 100 |
| CC(C)C[C@@H](NC(=O)[C@H](C)NC(=O)[C@H](NC(=O)[C@H](C)NC(=O)CNC(=O)[C@@H](NC=O)C(C)C)C(C)C)C(=O)N[C@H](C(=O)N[C@@H](C(=O)N[C@@H](Cc1c[nH]c2ccccc12)C(=O)N[C@H](CC(C)C)C(=O)N[C@@H](Cc1c[nH]c2ccccc12)C(=O)N[C@@H](C(=O)N[C@@H](Cc1c[nH]c2ccccc12)C(=O)N[C@@H](C(=O)N[C@@H](Cc1c[nH]c2ccccc12)C(=O)NCCO)[C@H](C)O)[C@H](C)O)C(C)C)C(C)C [compound 13040] (For-VGA[dV]A[dL]V[dV]W[dL]W[dT]W[dT]W-NHCH2CH2OH) | - | 1.01 | 100 |
| CNC(=O)C[C@@H](NC(=O)[C@H](C)NC(=O)[C@H](NC(=O)[C@H](C)NC(=O)CNC(=O)[C@@H](NC=O)C(C)C)C(C)C)C(=O)N[C@H](C(=O)N[C@H](CC(C)C)C(=O)N[C@@H](Cc1c[nH]c2ccccc12)C(=O)N[C@@H](C(=O)N[C@@H](Cc1c[nH]c2ccccc12)C(=O)N[C@@H](C(=O)N[C@@H](Cc1c[nH]c2ccccc12)C(=O)N[C@@H](C(=O)N[C@@H](Cc1c[nH]c2ccccc12)C(=O)NCCO)C(C)C)C(C)C)C(C)C)C(C)C [compound 13148] (For-VGA[dV]A[dD](NHMe)V[dL]W[dV]W[dV]W[dV]W-NHCH2CH2OH) | - | 1.03 | 93.6 |
| CC(C)C[C@@H](NC(=O)[C@H](Cc1c[nH]c2ccccc12)NC(=O)[C@@H](CC(C)C)NC(=O)[C@H](Cc1c[nH]c2ccccc12)NC(=O)[C@@H](CC(C)C)NC(=O)[C@H](Cc1c[nH]c2ccccc12)NC(=O)[C@H](NC(=O)[C@@H](NC(=O)[C@H](NC(=O)[C@H](C)NC(=O)[C@H](NC(=O)[C@H](C)NC(=O)CNC(=O)[C@@H](NC=O)C(C)C)C(C)C)[C@H](C)O)C(C)C)C(C)C)C(=O)N[C@@H](Cc1c[nH]c2ccccc12)C(=O)NCCO [compound 13151] (For-VGA[dV]A[dT]V[dV]W[dL]W[dL]W[dL]W-NHCH2CH2OH) | - | 1.01 | 100 |
| CC(C)C[C@@H](NC(=O)[C@H](Cc1c[nH]c2ccccc12)NC(=O)[C@H](NC(=O)[C@H](Cc1c[nH]c2ccccc12)NC(=O)[C@@H](CC(C)C)NC(=O)[C@@H](NC(=O)[C@H](NC(=O)[C@H](C)NC(=O)[C@H](NC(=O)[C@H](C)NC(=O)CNC(=O)[C@@H](NC=O)C(C)C)[C@H](C)O)C(C)C)C(C)C)[C@H](C)O)C(=O)N[C@@H](Cc1c[nH]c2ccccc12)C(=O)N[C@@H](C(=O)N[C@@H](Cc1c[nH]c2ccccc12)C(=O)NCCO)C(C)C [compound 13245] (For-VGA[dT]A[dV]V[dL]W[dT]W[dL]W[dV]W-NHCH2CH2OH) | - | 1.07 | 100 |
